Reference: paper doi:10.1101/306035v1 (biorxiv, 2018)

Target: T1, DcaPTrunc (Acinetobacter baumannii, UniProt A0A0D5YFT0)
T1 sequence (A0A0D5YFT0 89-434): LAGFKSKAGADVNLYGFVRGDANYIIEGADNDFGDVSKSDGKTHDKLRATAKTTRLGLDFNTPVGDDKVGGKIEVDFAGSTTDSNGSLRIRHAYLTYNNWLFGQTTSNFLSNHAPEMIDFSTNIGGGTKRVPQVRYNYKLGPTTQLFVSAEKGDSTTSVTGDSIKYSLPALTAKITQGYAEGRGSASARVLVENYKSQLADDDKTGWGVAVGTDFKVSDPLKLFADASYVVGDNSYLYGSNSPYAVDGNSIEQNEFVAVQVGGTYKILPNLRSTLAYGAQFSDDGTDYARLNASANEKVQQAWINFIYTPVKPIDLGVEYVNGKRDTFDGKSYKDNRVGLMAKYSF
Assay: biochemical

O=C(O)c1ccccc1C(=O)O [o-phthalic acid]
Kd: ~9 mM
